{"source": "patent US20080109040A1", "about": "“METHOD OF TREATING ARRHYTHMIAS” (priority 2002, published 2008)", "key": {"[1]": {"target": "T1, slowly activating component of the delayed rectifier current (IKs) (Canis lupus familiaris, UniProt A0A8I3N8W8)", "T1 construct": "Myocytes were isolated by enzymatic dissociation from a wedge-shaped section of the left ventricular free wall; endogenous in cells; host or cells: isolated canine left ventricular myocytes", "T1 sequence (A0A8I3N8W8 1-676)": "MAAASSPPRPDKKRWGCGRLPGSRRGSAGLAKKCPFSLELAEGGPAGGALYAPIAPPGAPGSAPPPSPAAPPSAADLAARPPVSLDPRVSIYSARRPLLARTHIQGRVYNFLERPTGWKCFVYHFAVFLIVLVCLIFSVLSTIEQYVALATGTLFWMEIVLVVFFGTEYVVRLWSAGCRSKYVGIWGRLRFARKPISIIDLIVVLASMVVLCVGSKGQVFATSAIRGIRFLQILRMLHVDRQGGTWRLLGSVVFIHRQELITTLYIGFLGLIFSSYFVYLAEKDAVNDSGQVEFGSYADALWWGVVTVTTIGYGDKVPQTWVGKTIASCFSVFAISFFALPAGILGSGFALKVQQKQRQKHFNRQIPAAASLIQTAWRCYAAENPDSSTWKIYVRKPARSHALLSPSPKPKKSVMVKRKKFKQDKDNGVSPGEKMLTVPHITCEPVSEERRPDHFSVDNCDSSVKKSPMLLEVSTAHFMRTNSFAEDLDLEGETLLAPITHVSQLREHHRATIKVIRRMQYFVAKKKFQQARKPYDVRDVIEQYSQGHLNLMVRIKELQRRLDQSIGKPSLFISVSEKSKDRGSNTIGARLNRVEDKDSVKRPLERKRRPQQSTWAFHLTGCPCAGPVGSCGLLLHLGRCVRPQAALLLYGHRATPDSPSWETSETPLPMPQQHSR", "assay": "Whole cell voltage clamp of IKs tail current in isolated canine left ventricular myocytes", "format": "cell-based", "description": "Myocytes were isolated by enzymatic dissociation from a wedge-shaped section of the left ventricular free wall supplied by the left circumflex coronary artery. Cells from the epicardial and midmyocardial regions of the left ventricle were used in this study.\nInward rectifier potassium current (IK), slow delayed rectifier potassium current (IKs), and rapid delayed rectifier potassium current (IKr) were recorded at 37° C. using conventional whole cell voltage clamp configuration.\nIK1 was measured using an external solution containing 3 μM ouabain and 5 μM nifedipine to block the sodium-potassium pump and L-type calcium current (ICa,L), respectively. […] 5 μM nifedipine was present in the external solution when IKr was being recorded.\nIsolated myocytes were placed in a temperature controlled 0.5 ml chamber (Medical Systems, Greenvale, N.Y.) on the stage of an inverted microscope and superfused at a rate of 2 ml/min. An eight-barrel quartz micromanifold (ALA Scientific Instruments Inc., Westbury, N.Y.) placed 100 μm from the cell was used to apply ranolazine at concentrations of (in μM): 0.1, 0.5, 1.0, 5.0, 10 and 100.0. An Axopatch 1D amplifier (Axon Instruments, Foster City, Calif.) was operated in voltage clamp mode to record currents. […]"}, "[2]": {"tested_on": "M cell preparations", "set-up": "species or system canine", "details": "for Amplitude / Overshoot / RMP: BCL = 500 msec; for Reduction of Vmax: preparation type not stated", "description": "The composition of the Tyrode's solution was (in mM): […] Action potential recordings: Transmembrane potentials were recorded using standard glass microelectrodes filled with 2.7 M KCl (10 to 20 MΩ DC resistance) connected to a high input-impedance amplification system (World Precision Instruments, Sarasota, Fla., USA). […] Data recorded at BCLs of 500 and 2000 msec are presented."}, "[3]": {"target": "T2, sodium-calcium exchange current (INa-Ca) (Canis lupus familiaris, UniProt P23685)", "T2 construct": "Single myocytes were obtained by enzymatic dissociation from a wedge-shaped section of the ventricular free wall; endogenous in cells; host or cells: isolated canine left ventricular myocytes", "assay": "Sodium-calcium exchange current voltage clamp in isolated canine left ventricular myocytes", "format": "cell-based", "details": "read-out: IC50 for inhibition of INa-Ca"}, "[4]": {"details": "M cell, low [K+]o, BCL = 2000 msec"}}, "note": "“Also recorded” adds a separate entry of the source. Like-named read-outs stand apart in the source and are kept apart here.", "data": [{"smiles": "COc1ccccc1OCC(O)CN1CCN(CC(=O)Nc2c(C)cccc2C)CC1", "note": "(racemic) [ranolazine, N-(2,6-dimethylphenyl)-4-[2-hydroxy-3-(2-methoxyphenoxy)propyl]-1-piperazineacetamide]", "values": [{"measurement": "Block of IKs tail current", "setting": "[1]; ranolazine 100 μM, reversed on washout", "value": "largely eliminated the tail current; also recorded: almost completely blocked"}, {"measurement": "IC50", "setting": "[1]; read-out: IC50 for inhibition of IKs tail current", "value": 13.4, "unit": "µM"}, {"measurement": "Effect on APD", "setting": "[2]; M cell preparations, BCL 500 msec", "value": "abbreviation"}, {"measurement": "Effect on APD50 and APD90", "setting": "[2]; M cell, [K+]o = 4 mM, BCL = 2000 msec", "value": "concentration-dependent abbreviation"}, {"measurement": "Effect on repolarization", "setting": "[2]; M cell, low [K+]o, BCL 500 msec", "value": "little change"}, {"measurement": "Effect on APD50", "setting": "[2]; [4]", "value": "concentration-dependent abbreviation"}, {"measurement": "Effect on APD90", "setting": "[2]; [4]", "value": "no significant change"}, {"measurement": "Amplitude", "setting": "[2]; M cell, ranolazine 1.0 μM", "value": "109 ± 9"}, {"measurement": "Overshoot", "setting": "[2]; M cell, ranolazine 1.0 μM", "value": "23 ± 10"}, {"measurement": "RMP", "setting": "[2]; M cell, ranolazine 1.0 μM", "value": "−86 ± 3"}, {"measurement": "Amplitude", "setting": "[2]; M cell, ranolazine 5.0 μM", "value": "114 ± 8"}, {"measurement": "Overshoot", "setting": "[2]; M cell, ranolazine 5.0 μM", "value": "27 ± 7"}, {"measurement": "RMP", "setting": "[2]; M cell, ranolazine 5.0 μM", "value": "−86 ± 3"}, {"measurement": "Amplitude", "setting": "[2]; M cell, ranolazine 10.0 μM", "value": "113 ± 9"}, {"measurement": "Overshoot", "setting": "[2]; M cell, ranolazine 10.0 μM", "value": "25 ± 8"}, {"measurement": "RMP", "setting": "[2]; M cell, ranolazine 10.0 μM", "value": "−86 ± 2"}, {"measurement": "Amplitude", "setting": "[2]; M cell, ranolazine 50.0 μM", "value": "104 ± 7"}, {"measurement": "Overshoot", "setting": "[2]; M cell, ranolazine 50.0 μM", "value": "19 ± 3"}, {"measurement": "RMP", "setting": "[2]; M cell, ranolazine 50.0 μM", "value": "−86 ± 5"}, {"measurement": "Amplitude", "setting": "[2]; M cell, ranolazine 100.0 μM", "value": "91 ± 19"}, {"measurement": "Overshoot", "setting": "[2]; M cell, ranolazine 100.0 μM", "value": "9 ± 13"}, {"measurement": "RMP", "setting": "[2]; M cell, ranolazine 100.0 μM", "value": "−86 ± 7"}, {"measurement": "Reduction of Vmax", "setting": "[2]; ranolazine 10 μM, BCL 500 msec", "value": "modest (n.s.)"}, {"measurement": "Reduction of Vmax", "setting": "[2]; ranolazine 100 μM, BCL 500 msec", "value": "more substantial"}, {"measurement": "Preparations in which d-sotalol-induced EAD activity was suppressed and APD abbreviated", "setting": "[2]; ranolazine 5-20 μM, 100 μM d-sotalol, M cell preparations", "value": "4/4"}, {"measurement": "IC50", "setting": "[3]", "value": 91, "unit": "µM"}]}]}
